Experimental data published in patent publication US9988348B1, “Synthesis and antimicrobial use of a trithiocarbonate derivative” (KING SAUD UNIVERSITY, priority 2017, dated 2018).
Marks after values point to notes of the source that are not given here.

Assay: biological effects of compound 4 alone in mice (not infected)
Assay type: in vivo
Set-up: Total Protein Mean ± SE: unit not given here
Settings: for daily body weight / % change in daily body weight / Food consumption / Mortality / Water consumption: i.v. 12 mg/kg then 6 mg/ml
Protocol: The experiment was performed in Experimental Animal Care Center (EACC), College of Pharmacy, King Saud University, Riyadh. Fifty Albino male mice, weighing nearly 30±2 gram were used. The mice were arranged in five groups, each including ten mice caged together, given water, and feed ad libitum. […] The group treated with standard drug (fluconazole) was infected intravenously with 0.2 ml of C. albicans suspension (10^6 CFU/mouse) and treated (orally) by 12 mg/kg of fluconazole (loading dose) on the first day followed by 6 mg/ml for 2 weeks.
The biological parameters included daily body weight (gm), mortality (%), food consumption (g/day/mouse), water consumption (ml/day/mouse), serum glutamic oxaloacetic transaminase [SGOT(AST) (U/L)], serum glutamic-pyruvic transaminase [SGPT(ALT)(U/L)], alkaline phosphatase (U/L), gamma-glutamyl transferase (GGT) (U/L), bilirubin (mg/dl)], cholesterol (mg/dl), triglycerides (mg/dl), high-density lipoprotein (HDL) (mg/dl), very-low-density lipoprotein (VLDL) (mg/dl), low-density lipoprotein (LDL) (mg/dl), lactate dehydrogenase (LDH) (U/L), glucose (mg/dl), total protein (mg/dl), malondialdehyde (MDA) (nmol/g), nonprotein sulfyhydryl (NP-SH) (nmol/g). […] SGOT (AST), SGPT (ALT), ALP, GGT, bilirubin LDH and total protein were estimated using Reflotron Plus Analyzer and Roche kits (Roche Diagnostics GmbH, Mannheim Germany) and United diagnostic kits assay. Hematological tests were performed by Mindray BC-2800VET auto Hematology Analyzer.

[1] = blood, uninfected mice, i.v. 12 mg/kg then 6 mg/ml for 2 weeks
[2] = liver tissue, uninfected mice, i.v. 12 mg/kg then 6 mg/ml for 2 weeks
[3] = serum, uninfected mice, i.v. 12 mg/kg then 6 mg/ml for 2 weeks

**Q.** For `CCOC(=O)CSC(=S)SCC(=O)OCC` [Compound 4, diethyl 2,2′-(thiocarbonylbis(sulfanediyl))diacetate], which “Eosinophils Mean ± SE” value [1] is on record?
**A.** 2.38 ± 0.09%

**Q.** What about the “HCT Mean ± SE” value [1] of the same molecule?
**A.** 45.9 ± 1.51^a

**Q.** What about the “HGB Mean ± SE” value [1] of the same molecule?
**A.** 12.4 ± 0.18^a g/dL

**Q.** And the “Lymphocytes Mean ± SE” value [1]?
**A.** 4.8 ± 0.09%

**Q.** What about the “MCH Mean ± SE” value [1] of the same molecule?
**A.** 39.0 ± 1.0 pg

**Q.** And the “MCHC Mean ± SE” value [1]?
**A.** 32.6 ± 0.9 g/dL

**Q.** What about the “MCV Mean ± SE” value [1] of the same molecule?
**A.** 87.31 ± 1.74 fL

**Q.** What about the “Monocytes Mean ± SE” value [1] of the same molecule?
**A.** 1.15 ± 0.01%

**Q.** And the “Neutrophils Mean ± SE” value [1]?
**A.** 33.3 ± 1.1%

**Q.** And the “PLT Mean ± SE” value [1]?
**A.** 670.7 ± 15.3 10^3/mm^3

**Q.** What about the “RBC Mean ± SE” value [1] of the same molecule?
**A.** 9.26 ± 0.1 10^6/mm^3

**Q.** And the “WBC Mean ± SE” value [1]?
**A.** 8795 ± 45.9 Cell/mm^3

**Q.** And the MDA [2]?
**A.** 0.94 ± 0.03***^a nmol/g

**Q.** And the NP-SH [2]?
**A.** 6.88 ± 0.22***^a nmol/g

**Q.** What about the “Total Protein” value [2] of the same molecule?
**A.** 129.04 ± 2.80**^a g/l

**Q.** And the “side effects on food and water consumption comparing with control group” value (mice)?
**A.** no negative side effects

**Q.** And the “Alkaline phosphatase Mean ± SE” value (serum, uninfected mice, 12 mg/kg then 6 mg/ml for 2 weeks)?
**A.** 286.62 ± 4.67^a U/L

**Q.** And the “Bilirubin Mean ± SE” value [3]?
**A.** 0.57 ± 0.017^a mg/dl

**Q.** And the “Cholesterol Mean ± SE” value [3]?
**A.** 78.68 ± 3.2 mg/dL

**Q.** What about the “GGT Mean ± SE” value [3] of the same molecule?
**A.** 4.40 ± 0.13^a U/L

**Q.** What about the “Glucose level Mean ± SE” value [3] of the same molecule?
**A.** 96.38 ± 3.62**^a mg/dl

**Q.** What about the “HDL Mean ± SE” value [3] of the same molecule?
**A.** 41.6 ± 2.1^a mg/dl

**Q.** And the “LDH Mean ± SE” value [3]?
**A.** 162.50 ± 1.84^a U/L

**Q.** And the “LDL Mean ± SE” value [3]?
**A.** 23.3 ± 3.0 mg/dL

**Q.** And the “SGOT(AST) Mean ± SE” value [3]?
**A.** 89.07 ± 3.82 U/L

**Q.** And the “SGPT(ALT) Mean ± SE” value [3]?
**A.** 28.67 ± 1.15^a U/L

**Q.** What about the “Total Protein Mean ± SE” value [3] of the same molecule?
**A.** 7.66 ± 0.18

**Q.** What about the “Triglycerides Mean ± SE” value [3] of the same molecule?
**A.** 68.5 ± 1.6 mg/dL

**Q.** What about the “VLDL Mean ± SE” value [3] of the same molecule?
**A.** 13.7 ± 0.3 mg/dL

**Q.** What about the “mortality in the group treated only with the compound, in words” value (uninfected mice) of the same molecule?
**A.** close to the control group

**Q.** And the daily body weight (uninfected mice, day 0)?
**A.** 20.20 ± 0.38 gm

**Q.** And the “% change in daily body weight” value (uninfected mice, day 1)?
**A.** 0.49%

**Q.** And the Food consumption (uninfected mice, day 1)?
**A.** 4.2 g/day/mice

**Q.** And the Mortality (uninfected mice, day 1)?
**A.** 0%

**Q.** What about the Water consumption (uninfected mice, day 1) of the same molecule?
**A.** 5.2 g/day/mice

**Q.** And the daily body weight (uninfected mice, day 1)?
**A.** 20.30 ± 0.36 gm

**Q.** And the “% change in daily body weight” value (uninfected mice, day 2)?
**A.** 9.40%

**Q.** And the Food consumption (uninfected mice, day 2)?
**A.** 4.5 g/day/mice

**Q.** And the Mortality (uninfected mice, day 2)?
**A.** 0%

**Q.** What about the Water consumption (uninfected mice, day 2) of the same molecule?
**A.** 5.2 g/day/mice

**Q.** And the daily body weight (uninfected mice, day 2)?
**A.** 22.10 ± 0.23 gm

**Q.** What about the “% change in daily body weight” value (uninfected mice, day 3) of the same molecule?
**A.** 16.83%

**Q.** And the Food consumption (uninfected mice, day 3)?
**A.** 4.4 g/day/mice

**Q.** What about the Mortality (uninfected mice, day 3) of the same molecule?
**A.** 0%

**Q.** What about the Water consumption (uninfected mice, day 3) of the same molecule?
**A.** 5.4 g/day/mice

**Q.** What about the daily body weight (uninfected mice, day 3) of the same molecule?
**A.** 23.60 ± 0.33 gm

**Q.** And the “% change in daily body weight” value (uninfected mice, day 4)?
**A.** 19.80%

**Q.** And the Food consumption (uninfected mice, day 4)?
**A.** 4.5 g/day/mice

**Q.** And the Mortality (uninfected mice, day 4)?
**A.** 0%

**Q.** What about the Water consumption (uninfected mice, day 4) of the same molecule?
**A.** 5.5 g/day/mice

**Q.** What about the daily body weight (uninfected mice, day 4) of the same molecule?
**A.** 24.20 ± 0.20 gm

**Q.** And the “% change in daily body weight” value (uninfected mice, day 5)?
**A.** 23.26%

**Q.** And the Food consumption (uninfected mice, day 5)?
**A.** 4.6 g/day/mice

**Q.** What about the Mortality (uninfected mice, day 5) of the same molecule?
**A.** 0%

**Q.** What about the Water consumption (uninfected mice, day 5) of the same molecule?
**A.** 5.5 g/day/mice

**Q.** What about the daily body weight (uninfected mice, day 5) of the same molecule?
**A.** 24.90 ± 0.23 gm

**Q.** What about the “% change in daily body weight” value (uninfected mice, day 6) of the same molecule?
**A.** 27.22%

**Q.** And the Food consumption (uninfected mice, day 6)?
**A.** 4.6 g/day/mice

**Q.** What about the Mortality (uninfected mice, day 6) of the same molecule?
**A.** 0%

**Q.** And the Water consumption (uninfected mice, day 6)?
**A.** 5.7 g/day/mice

**Q.** And the daily body weight (uninfected mice, day 6)?
**A.** 25.70 ± 0.21 gm

**Q.** What about the “% change in daily body weight” value (uninfected mice, day 7) of the same molecule?
**A.** 29.70%

**Q.** What about the Food consumption (uninfected mice, day 7) of the same molecule?
**A.** 4.8 g/day/mice

**Q.** And the Mortality (uninfected mice, day 7)?
**A.** 0%

**Q.** And the Water consumption (uninfected mice, day 7)?
**A.** 5.8 g/day/mice

**Q.** And the daily body weight (uninfected mice, day 7)?
**A.** 26.20 ± 0.24 gm

**Q.** And the “% change in daily body weight” value (uninfected mice, day 8)?
**A.** 32.17%

**Q.** What about the Food consumption (uninfected mice, day 8) of the same molecule?
**A.** 4.9 g/day/mice

**Q.** And the Mortality (uninfected mice, day 8)?
**A.** 0%

**Q.** What about the Water consumption (uninfected mice, day 8) of the same molecule?
**A.** 5.8 g/day/mice

**Q.** What about the daily body weight (uninfected mice, day 8) of the same molecule?
**A.** 26.70 ± 0.26 gm

**Q.** What about the “% change in daily body weight” value (uninfected mice, day 9) of the same molecule?
**A.** 32.67%

**Q.** And the Food consumption (uninfected mice, day 9)?
**A.** 4.9 g/day/mice

**Q.** And the Mortality (uninfected mice, day 9)?
**A.** 0%

**Q.** What about the Water consumption (uninfected mice, day 9) of the same molecule?
**A.** 5.9 g/day/mice

**Q.** And the daily body weight (uninfected mice, day 9)?
**A.** 26.80 ± 0.29 gm

**Q.** What about the “% change in daily body weight” value (uninfected mice, day 10) of the same molecule?
**A.** 33.66%

**Q.** And the Food consumption (uninfected mice, day 10)?
**A.** 5.1 g/day/mice

**Q.** What about the Mortality (uninfected mice, day 10) of the same molecule?
**A.** 0%

**Q.** What about the Water consumption (uninfected mice, day 10) of the same molecule?
**A.** 5.9 g/day/mice

**Q.** What about the daily body weight (uninfected mice, day 10) of the same molecule?
**A.** 27.00 ± 0.27 gm

**Q.** And the “% change in daily body weight” value (uninfected mice, day 11)?
**A.** 35.64%

**Q.** And the Food consumption (uninfected mice, day 11)?
**A.** 5.2 g/day/mice

**Q.** What about the Mortality (uninfected mice, day 11) of the same molecule?
**A.** 0%

**Q.** And the Water consumption (uninfected mice, day 11)?
**A.** 6.0 g/day/mice

**Q.** What about the daily body weight (uninfected mice, day 11) of the same molecule?
**A.** 27.40 ± 0.35 gm

**Q.** What about the “% change in daily body weight” value (uninfected mice, day 12) of the same molecule?
**A.** 36.96%

**Q.** What about the Food consumption (uninfected mice, day 12) of the same molecule?
**A.** 6.0 g/day/mice

**Q.** And the Mortality (uninfected mice, day 12)?
**A.** 0%

**Q.** And the Water consumption (uninfected mice, day 12)?
**A.** 6.11 g/day/mice

**Q.** What about the daily body weight (uninfected mice, day 12) of the same molecule?
**A.** 27.66 ± 0.28 gm

**Q.** And the “% change in daily body weight” value (uninfected mice, day 13)?
**A.** 35.51%

**Q.** What about the Food consumption (uninfected mice, day 13) of the same molecule?
**A.** 6.0 g/day/mice

**Q.** And the Mortality (uninfected mice, day 13)?
**A.** 10%

**Q.** What about the Water consumption (uninfected mice, day 13) of the same molecule?
**A.** 6.2 g/day/mice

**Q.** What about the daily body weight (uninfected mice, day 13) of the same molecule?
**A.** 27.77 ± 0.27 gm

**Q.** And the “% change in daily body weight” value (uninfected mice, day 14)?
**A.** 38.61%

**Q.** And the Food consumption (uninfected mice, day 14)?
**A.** 6.1 g/day/mice

**Q.** And the Mortality (uninfected mice, day 14)?
**A.** 10%

**Q.** What about the Water consumption (uninfected mice, day 14) of the same molecule?
**A.** 6.2 g/day/mice

**Q.** What about the daily body weight (uninfected mice, day 14) of the same molecule?
**A.** 28.00 ± 0.37 gm

**Q.** What about the “% change in daily body weight” value (uninfected mice, day 15) of the same molecule?
**A.** 41.70%

**Q.** What about the Food consumption (uninfected mice, day 15) of the same molecule?
**A.** 6.1 g/day/mice

**Q.** What about the Mortality (uninfected mice, day 15) of the same molecule?
**A.** 10%

**Q.** And the Water consumption (uninfected mice, day 15)?
**A.** 6.3 g/day/mice

**Q.** And the daily body weight (uninfected mice, day 15)?
**A.** 28.62 ± 0.41 gm
